# Where a SMILES comes first, the peptide text is derived from it. Bridges are numbered along the chain shown (N, C = ends). [ ]: non-standard residue; d: D form. The star is where a group is joined. d(aIle) = CC[C@H](C)[C@@H](N)C(=O)O; d(aThr) = C[C@@H](O)[C@@H](N)C(=O)O; Hexanoyl(5-Me) = CC(C)CCCC(=O)*; Orn = NCCC[C@H](N)C(=O)O; Dhb = C/C=C(\N)C(=O)O
# Experiments:
# Format in all cases: cell-based, human
# [1] = test system: IGROV-ET; assay: SRB colorimetric assay of cell growth and viability, IGROV-ET; settings: 48 hours exposure; for CC50: read-out: LC50 IGROV-ET
# [2] = test system: K-562; assay: SRB colorimetric assay of cell growth and viability, K-562; settings: 48 hours exposure; for CC50: read-out: LC50 K-562
# [3] = test system: SK-MEL-28; assay: SRB colorimetric assay of cell growth and viability, SK-MEL-28; settings: 48 hours exposure; for CC50: read-out: LC50 MEL-28
# [4] = test system: LNCaP; assay: SRB colorimetric assay of cell growth and viability, LNCaP; settings: 48 hours exposure; for GI50: read-out: GI50 LN-caP; for CC50: read-out: LC50 LN-caP
# Source text: The finality of this assay is to interrupt the growth of a “in vitro” tumor cell culture by means a continued exhibition of the cells to the sample to be testing.
# This form of the assay employs 96 well cell culture microplates of 9 mm diameter (Faircloth, 1988; Mosmann, 1983). Most of the cell lines are obtained from American Type Culture Collection (ATCC) derived from different human cancer types.
# Cells are maintained in RPMI 1640 10% FBS, supplemented with 0.1 g/l penicillin and 0.1 g/l streptomycin sulfate and then incubated at 37° C., 5% CO2 and 98% humidity. For the experiments, cells were harvested from subconfluent cultures using trypsin and resuspended in fresh medium before plating.
# Cells are seeded in 96 well microtiter plates, at 5×10^3 cells per well in aliquots of 195 μL medium, and they are allowed to attach to the plate surface by growing in drug free medium for 18 hours. Afterward, samples are added in aliquots of 5 μL in a ranging from 10 to 10^−8 μg/mL, dissolved in DMSO:EtOH:PBS (0.5:0.5:99). After 48 hours exposure, the antitumor effect are measured by the SRB methodology: cells are fixed by adding 50 μL of cold 50% (wt/vol) trichloroacetic acid (TCA) and incubating for 60 minutes at 4° C. Plates are washed with deionized water and dried. One hundred μL of SRB solution (0.4% wt/vol in 1% acetic acid) is added to each microtiter well and incubated for 10 minutes at room temperature. Unbound SRB is removed by washing with 1% acetic acid. Plates are air dried and bound stain is solubilized with Tris buffer. Optical densities are read on a automated spectrophotometric plate reader at a single wavelength of 490 nm.
# The values for mean+/− SD of data from triplicate wells are calculated. Some parameters for cellular responses can be calculated: GI=growth inhibition, TGI=total growth inhibition (cytostatic effect) and LC=cell killing (cytotoxic effect).
# [5] = test system: HeLa-APL; assay: SRB colorimetric assay of cell growth and viability, HeLa-APL; settings: 48 hours exposure; for CC50: read-out: LC50 HELA-APL
# [6] = test system: A-549; assay: SRB colorimetric assay of cell growth and viability, A-549; settings: 48 hours exposure; for GI50: read-out: GI50 A-549; for CC50: read-out: LC50 A-549
# [7] = test system: HeLa; assay: SRB colorimetric assay of cell growth and viability, HeLa; settings: 48 hours exposure; for CC50: read-out: LC50 HELA
# [8] = test system: PANC-1; assay: SRB colorimetric assay of cell growth and viability, PANC-1; settings: 48 hours exposure; for CC50: read-out: LC50 PANC-1
# [9] = test system: IGROV-1; assay: SRB colorimetric assay of cell growth and viability, IGROV-1; settings: 48 hours exposure
# [10] = test system: HT-29; assay: SRB colorimetric assay of cell growth and viability, HT-29; settings: 48 hours exposure; for GI50: read-out: GI50 HT-29; for CC50: read-out: LC50 HT-29
# [11] = test system: SK-BR-3; assay: SRB colorimetric assay of cell growth and viability, SK-BR-3; settings: 48 hours exposure
# [12] = test system: LoVo; assay: SRB colorimetric assay of cell growth and viability, LoVo; settings: 48 hours exposure; for CC50: read-out: LC50 LOVO
# [13] = test system: DU-145; assay: SRB colorimetric assay of cell growth and viability, DU-145; settings: 48 hours exposure
SMILES,GI50 [1] [nM],TGI IGROV-ET [1] [Molar],CC50 [1] [µM],GI50 [2] [nM],TGI K-562 [2] [Molar],CC50 [2] [µM],GI50 [3] [nM],TGI MEL-28 [3] [Molar],CC50 [3] [µM],GI50 [4] [nM],CC50 [4] [µM],GI50 [5] [nM],TGI HELA-APL [5] [Molar],CC50 [5] [µM],TGI A-549 [6] [Molar],GI50 [6] [nM],CC50 [6] [µM],GI50 [7] [nM],TGI HELA [7] [Molar],CC50 [7] [µM],other results
"C/C=C1\NC(=O)[C@H](Cc2ccccc2)NC(=O)[C@@H](C(C)C)NC(=O)[C@@H]([C@@H](C)CC)NC(=O)[C@H](NC(=O)[C@H](NC(=O)[C@H](CCCN)NC(=O)[C@H]2CCCN2C(=O)[C@H](NC(=O)[C@H](C)NC(=O)[C@@H](NC(=O)[C@H](NC(=O)CCCC(C)C)C(C)C)[C@@H](C)O)C(C)C)[C@@H](C)CC)[C@@H](C)OC(=O)[C@H](C(C)C)NC1=O [Compound 44, [Ala^11]-KF] ({Hexanoyl(5-Me)}-[dV]TA[dV][dP][Orn][d(aIle)][d(aThr)][d(aIle)][dV]F[Dhb]V; ester 8-C)",1500,2.95E−06,5.77,3060,6.90E−06,6.9,3690,6.90E−06,6.9,2780,6.9,3180,6.90E−06,6.9,6.90E−06,2690,6.9,2850,6.90E−06,6.9,GI50 [8]: 6.9 µM; TGI PANC-1 [8]: 6.90E−06 Molar; CC50 [8]: 6.9 µM; GI50 [9]: 1430 nM; LC50 (concentration causing 50% net cell killing) [9]: 5.72 µM; TGI IGROV [9]: 2.86E−06 Molar; TGI HT-29 [10]: 2.61E−06 Molar; GI50 [10]: 1340 nM; CC50 [10]: 5080 nM; GI50 [11]: 1190 nM; LC50 [11]: 5300 nM; TGI SK-BR-3 [11]: 2.52E−06 Molar; GI50 [12]: 973 nM; TGI LOVO [12]: 2.03E−06 Molar; CC50 [12]: 4230 nM; GI50 [13]: 3030 nM; LC50 (concentration causing 50% net cell kill) [13]: 6.9 µM; TGI DU-145 [13]: 6.90E−06 Molar
"C/C=C1\NC(=O)[C@H](Cc2ccccc2)NC(=O)[C@@H](C(C)C)NC(=O)[C@@H]([C@@H](C)CC)NC(=O)[C@H](NC(=O)[C@H](NC(=O)[C@H](CCCN)NC(=O)[C@H]2CCCN2C(=O)[C@H](NC(=O)[C@H](Cc2ccccc2)NC(=O)[C@@H](NC(=O)[C@H](NC(=O)CCCC(C)C)C(C)C)[C@@H](C)O)C(C)C)[C@@H](C)CC)[C@@H](C)OC(=O)[C@H](C(C)C)NC1=O [Compound 43, [Phe^11]-KF] ({Hexanoyl(5-Me)}-[dV]TF[dV][dP][Orn][d(aIle)][d(aThr)][d(aIle)][dV]F[Dhb]V; ester 8-C)",233,6.28E−07,2.53,1230,2.18E−06,3.85,780,1.66E−06,3.57,852,4.55,793,1.77E−06,3.93,1.40E−06,521,3.41,397,1.32E−06,3.95,TGI LN-caP [4]: 1.97E−06 Molar; GI50 [8]: 1.79 µM; TGI PANC-1 [8]: 4.86E−06 Molar; CC50 [8]: 6.55 µM; GI50 [9]: 241 nM; LC50 (concentration causing 50% net cell killing) [9]: 3.68 µM; TGI IGROV [9]: 7.67E−07 Molar; TGI HT-29 [10]: 2.73E−07 Molar; GI50 [10]: 141 nM; CC50 [10]: 531 nM; GI50 [11]: 119 nM; LC50 [11]: 634 nM; TGI SK-BR-3 [11]: 2.75E−07 Molar; GI50 [12]: 105 nM; TGI LOVO [12]: 2.22E−07 Molar; CC50 [12]: 471 nM; GI50 [13]: 476 nM; LC50 (concentration causing 50% net cell kill) [13]: 3.22 µM; TGI DU-145 [13]: 1.34E−06 Molar

# Reference: patent US20070117743A1, “New antitumoral compounds” (priority 2003, published 2007)
